# Data as given in the NIST ThermoML archive (doi:10.1021/je040006u).
# Numbers after ± are expanded uncertainties.
# Experiment: xn = mol fraction of the nth substance listed
# Details: 101.3 kPa, Liquid, Pycnometric method
compound,measurement,setting,value
CCCNCCC [dipropylamine] + COCCO,mass density,"291.15 K, x2 = 0",738.47 ± 2 kg/m3
same,mass density,"291.15 K, x2 = 0.0501",746.83 ± 2 kg/m3
same,mass density,"291.15 K, x2 = 0.1",754.98 ± 2.1 kg/m3
same,mass density,"291.15 K, x2 = 0.1502",763.4 ± 2.1 kg/m3
same,mass density,"291.15 K, x2 = 0.2001",772.06 ± 2.1 kg/m3
same,mass density,"291.15 K, x2 = 0.2508",781.14 ± 2.1 kg/m3
same,mass density,"291.15 K, x2 = 0.2999",790.26 ± 2.2 kg/m3
same,mass density,"291.15 K, x2 = 0.3502",799.92 ± 2.2 kg/m3
same,mass density,"291.15 K, x2 = 0.4",809.92 ± 2.2 kg/m3
same,mass density,"291.15 K, x2 = 0.45",820.34 ± 2.3 kg/m3
same,mass density,"291.15 K, x2 = 0.4999",831.06 ± 2.3 kg/m3
same,mass density,"291.15 K, x2 = 0.5507",842.47 ± 2.3 kg/m3
same,mass density,"291.15 K, x2 = 0.5982",853.45 ± 2.4 kg/m3
same,mass density,"291.15 K, x2 = 0.6502",866.02 ± 2.4 kg/m3
same,mass density,"291.15 K, x2 = 0.6999",878.41 ± 2.4 kg/m3
same,mass density,"291.15 K, x2 = 0.7489",891.21 ± 2.5 kg/m3
same,mass density,"291.15 K, x2 = 0.8015",905.66 ± 2.5 kg/m3
same,mass density,"291.15 K, x2 = 0.8496",919.22 ± 2.6 kg/m3
same,mass density,"291.15 K, x2 = 0.8997",934.42 ± 2.6 kg/m3
same,mass density,"291.15 K, x2 = 0.9497",950.19 ± 2.6 kg/m3
same,mass density,"293.15 K, x2 = 0",737.2 ± 2 kg/m3
same,mass density,"293.15 K, x2 = 0.0501",745.26 ± 2.1 kg/m3
same,mass density,"293.15 K, x2 = 0.1",753.42 ± 2.1 kg/m3
same,mass density,"293.15 K, x2 = 0.1502",761.9 ± 2.1 kg/m3
same,mass density,"293.15 K, x2 = 0.2001",770.51 ± 2.1 kg/m3
same,mass density,"293.15 K, x2 = 0.2508",779.61 ± 2.2 kg/m3
same,mass density,"293.15 K, x2 = 0.2999",788.66 ± 2.2 kg/m3
same,mass density,"293.15 K, x2 = 0.3502",798.35 ± 2.2 kg/m3
same,mass density,"293.15 K, x2 = 0.4",808.21 ± 2.2 kg/m3
same,mass density,"293.15 K, x2 = 0.45",818.67 ± 2.3 kg/m3
same,mass density,"293.15 K, x2 = 0.4999",829.4 ± 2.3 kg/m3
same,mass density,"293.15 K, x2 = 0.5507",840.75 ± 2.3 kg/m3
same,mass density,"293.15 K, x2 = 0.5982",851.69 ± 2.4 kg/m3
same,mass density,"293.15 K, x2 = 0.6502",864.26 ± 2.4 kg/m3
same,mass density,"293.15 K, x2 = 0.6999",876.59 ± 2.4 kg/m3
same,mass density,"293.15 K, x2 = 0.7489",889.34 ± 2.5 kg/m3
same,mass density,"293.15 K, x2 = 0.8015",903.7 ± 2.5 kg/m3
same,mass density,"293.15 K, x2 = 0.8496",917.32 ± 2.5 kg/m3
same,mass density,"293.15 K, x2 = 0.8997",932.35 ± 2.6 kg/m3
same,mass density,"293.15 K, x2 = 0.9497",948.22 ± 2.6 kg/m3
same,mass density,"298.15 K, x2 = 0",732.56 ± 2 kg/m3
same,mass density,"298.15 K, x2 = 0.0501",740.37 ± 2.1 kg/m3
same,mass density,"298.15 K, x2 = 0.1",748.52 ± 2.1 kg/m3
same,mass density,"298.15 K, x2 = 0.1502",756.9 ± 2.1 kg/m3
same,mass density,"298.15 K, x2 = 0.2001",765.5 ± 2.1 kg/m3
same,mass density,"298.15 K, x2 = 0.2508",774.59 ± 2.2 kg/m3
same,mass density,"298.15 K, x2 = 0.2999",783.68 ± 2.2 kg/m3
same,mass density,"298.15 K, x2 = 0.3502",793.28 ± 2.2 kg/m3
same,mass density,"298.15 K, x2 = 0.4",803.2 ± 2.2 kg/m3
same,mass density,"298.15 K, x2 = 0.45",813.61 ± 2.3 kg/m3
same,mass density,"298.15 K, x2 = 0.4999",824.3 ± 2.3 kg/m3
same,mass density,"298.15 K, x2 = 0.5507",835.6 ± 2.3 kg/m3
same,mass density,"298.15 K, x2 = 0.5982",846.6 ± 2.4 kg/m3
same,mass density,"298.15 K, x2 = 0.6502",859.11 ± 2.4 kg/m3
same,mass density,"298.15 K, x2 = 0.6999",871.47 ± 2.4 kg/m3
same,mass density,"298.15 K, x2 = 0.7489",884.21 ± 2.5 kg/m3
same,mass density,"298.15 K, x2 = 0.8015",898.54 ± 2.5 kg/m3
same,mass density,"298.15 K, x2 = 0.8496",912.15 ± 2.5 kg/m3
same,mass density,"298.15 K, x2 = 0.8997",927.21 ± 2.6 kg/m3
same,mass density,"298.15 K, x2 = 0.9497",943.1 ± 2.6 kg/m3
same,mass density,"303.15 K, x2 = 0",728.2 ± 2 kg/m3
same,mass density,"303.15 K, x2 = 0.0501",735.86 ± 2.1 kg/m3
same,mass density,"303.15 K, x2 = 0.1",743.91 ± 2.1 kg/m3
same,mass density,"303.15 K, x2 = 0.1502",752.27 ± 2.1 kg/m3
same,mass density,"303.15 K, x2 = 0.2001",760.85 ± 2.1 kg/m3
same,mass density,"303.15 K, x2 = 0.2508",769.92 ± 2.1 kg/m3
same,mass density,"303.15 K, x2 = 0.2999",778.97 ± 2.2 kg/m3
same,mass density,"303.15 K, x2 = 0.3502",788.57 ± 2.2 kg/m3
same,mass density,"303.15 K, x2 = 0.4",798.45 ± 2.2 kg/m3
same,mass density,"303.15 K, x2 = 0.45",808.82 ± 2.2 kg/m3
same,mass density,"303.15 K, x2 = 0.4999",819.53 ± 2.3 kg/m3
same,mass density,"303.15 K, x2 = 0.5507",830.8 ± 2.3 kg/m3
same,mass density,"303.15 K, x2 = 0.5982",841.77 ± 2.3 kg/m3
same,mass density,"303.15 K, x2 = 0.6502",854.24 ± 2.4 kg/m3
same,mass density,"303.15 K, x2 = 0.6999",866.58 ± 2.4 kg/m3
same,mass density,"303.15 K, x2 = 0.7489",879.3 ± 2.4 kg/m3
same,mass density,"303.15 K, x2 = 0.8015",893.64 ± 2.5 kg/m3
same,mass density,"303.15 K, x2 = 0.8496",907.23 ± 2.5 kg/m3
same,mass density,"303.15 K, x2 = 0.8997",922.3 ± 2.5 kg/m3
same,mass density,"303.15 K, x2 = 0.9497",938.3 ± 2.6 kg/m3
same,mass density,"308.15 K, x2 = 0",723.64 ± 2 kg/m3
same,mass density,"308.15 K, x2 = 0.0501",731.07 ± 2 kg/m3
same,mass density,"308.15 K, x2 = 0.1",739.04 ± 2.1 kg/m3
same,mass density,"308.15 K, x2 = 0.1502",747.36 ± 2.1 kg/m3
same,mass density,"308.15 K, x2 = 0.2001",755.94 ± 2.1 kg/m3
same,mass density,"308.15 K, x2 = 0.2508",764.98 ± 2.1 kg/m3
same,mass density,"308.15 K, x2 = 0.2999",774.07 ± 2.2 kg/m3
same,mass density,"308.15 K, x2 = 0.3502",783.65 ± 2.2 kg/m3
same,mass density,"308.15 K, x2 = 0.4",793.51 ± 2.2 kg/m3
same,mass density,"308.15 K, x2 = 0.45",803.85 ± 2.2 kg/m3
same,mass density,"308.15 K, x2 = 0.4999",814.5 ± 2.3 kg/m3
same,mass density,"308.15 K, x2 = 0.5507",825.78 ± 2.3 kg/m3
same,mass density,"308.15 K, x2 = 0.5982",836.69 ± 2.3 kg/m3
same,mass density,"308.15 K, x2 = 0.6502",849.17 ± 2.4 kg/m3
same,mass density,"308.15 K, x2 = 0.6999",861.5 ± 2.4 kg/m3
same,mass density,"308.15 K, x2 = 0.7489",874.18 ± 2.4 kg/m3
same,mass density,"308.15 K, x2 = 0.8015",888.51 ± 2.5 kg/m3
same,mass density,"308.15 K, x2 = 0.8496",902.13 ± 2.5 kg/m3
same,mass density,"308.15 K, x2 = 0.8997",917.11 ± 2.5 kg/m3
same,mass density,"308.15 K, x2 = 0.9497",933.24 ± 2.6 kg/m3
